Test results as given in ChEMBL document CHEMBL1201862, “PubChem BioAssay data set” (2004).
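All cell lines were grown in 96-well plates and treated with compound for 48 hours. GI50: concentration for 50% inhibition of growth.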 Calls of active or inactive are those of the source. Rule as the data show it: active = GI50 up to about 1.1 µM and inactive = higher. Residues, ends and D or L forms follow the SMILES beside them. *: point of attachment. Boc = CC(C)(C)OC(=O)*; OBn = c1ccc(CO*)cc1; Bn = c1ccc(C*)cc1

Key:
Test in all cases: DTP human tumour cell line panel, 48 h
UO-31 = test system: UO-31
SK-OV-3 = test system: SK-OV-3
SF-539 = test system: SF-539
A498 = test system: A498
CAKI-1 = test system: CAKI-1
COLO 205 = test system: COLO 205
UACC-62 = test system: UACC-62
DU-145 = test system: DU-145
OVCAR-8 = test system: OVCAR-8
MOLT-4 = test system: MOLT-4
EKVX = test system: EKVX
SK-MEL-28 = test system: SK-MEL-28
CCRF-CEM = test system: CCRF-CEM
KM12 = test system: KM12
OVCAR-3 = test system: OVCAR-3
Malme-3M = test system: Malme-3M
SF-295 = test system: SF-295
OVCAR-5 = test system: OVCAR-5
TK-10 = test system: TK-10
IGROV-1 = test system: IGROV-1

Measured: GI50

O=[N+]([O-])C(/C(Cl)=C(/Cl)N1CCOCC1)=C1\Nc2ccccc2O1
inactive: UO-31 > 100 µM | SK-OV-3 > 100 µM | SF-539 > 100 µM | A498 > 100 µM | CAKI-1 > 100 µM | COLO 205 > 100 µM | UACC-62 96.2 µM | DU-145 70.3 µM | OVCAR-8 > 100 µM | MOLT-4 > 100 µM | EKVX > 100 µM | SK-MEL-28 > 100 µM | CCRF-CEM > 100 µM | KM12 > 100 µM | OVCAR-3 24.4 µM | Malme-3M > 100 µM | SF-295 > 100 µM | OVCAR-5 > 100 µM

O=c1oc2ccccc2c(O)c1C(C/C(CCN1CCCC1)=N/O)c1ccccc1 (stereo unspecified)
inactive: UO-31 > 100 µM | SK-OV-3 > 100 µM | SF-539 > 100 µM | A498 > 100 µM | CAKI-1 > 100 µM | COLO 205 > 100 µM | UACC-62 > 100 µM | DU-145 > 100 µM | OVCAR-8 > 100 µM | MOLT-4 > 48 µM | EKVX > 100 µM | SK-MEL-28 > 100 µM | TK-10 > 100 µM | KM12 > 100 µM | OVCAR-3 > 100 µM | IGROV-1 > 100 µM | Malme-3M > 100 µM | SF-295 > 100 µM | OVCAR-5 > 100 µM

COc1c2cc(C(C)(C)C)cc1Cc1cccc(c1OCc1cccc([N+](=O)[O-])c1)Cc1cc(C(C)(C)C)cc(c1OC)Cc1cccc(c1OCc1cccc([N+](=O)[O-])c1)Cc1cc(C(C)(C)C)cc(c1OC)Cc1cccc(c1OCc1cccc([N+](=O)[O-])c1)C2
inactive: UO-31 > 50 µM | SF-539 > 50 µM | A498 > 50 µM | CAKI-1 > 50 µM | COLO 205 > 50 µM | UACC-62 > 50 µM | DU-145 > 50 µM | OVCAR-8 > 50 µM | MOLT-4 > 50 µM | EKVX > 50 µM | SK-MEL-28 > 50 µM | CCRF-CEM > 5 µM | KM12 > 50 µM | OVCAR-3 > 50 µM | IGROV-1 > 50 µM | Malme-3M > 50 µM | SF-295 > 50 µM | OVCAR-5 > 50 µM

CC(C(=O)O)/C(=C\c1ccc2c(c1)OCO2)C(=O)O (stereo unspecified)
inactive: UO-31 > 100 µM | SK-OV-3 > 100 µM | SF-539 > 100 µM | A498 > 100 µM | CAKI-1 > 100 µM | COLO 205 > 100 µM | UACC-62 > 100 µM | DU-145 > 100 µM | OVCAR-8 > 100 µM | MOLT-4 > 6.89 µM | EKVX > 53.6 µM | SK-MEL-28 > 100 µM | TK-10 > 100 µM | KM12 > 100 µM | OVCAR-3 > 100 µM | IGROV-1 > 100 µM | Malme-3M > 100 µM | SF-295 > 100 µM | OVCAR-5 > 10 µM

COc1ccc(CNc2nc(NCc3ccc(OC)cc3)nc(Nc3ccccc3)n2)cc1
inactive: UO-31 > 100 µM | SK-OV-3 61.5 µM | SF-539 14.2 µM | A498 39.1 µM | CAKI-1 3.35 µM | COLO 205 4.82 µM | UACC-62 4.14 µM | DU-145 37.7 µM | OVCAR-8 20.3 µM | MOLT-4 3.01 µM | EKVX > 100 µM | SK-MEL-28 4.72 µM | TK-10 21.5 µM | KM12 3.37 µM | OVCAR-3 2.62 µM | IGROV-1 9.71 µM | Malme-3M 6.35 µM | SF-295 2.58 µM | OVCAR-5 > 100 µM

CC(C)[C@@H]1NC(=O)[C@@H]2N=C(O[C@H]2C)[C@H](C(C)C)NC(=O)C2N=C1O[C@H]2C
inactive: UO-31 > 100 µM | SF-539 > 100 µM | A498 > 100 µM | CAKI-1 > 100 µM | COLO 205 > 100 µM | UACC-62 > 100 µM | DU-145 > 100 µM | OVCAR-8 > 100 µM | MOLT-4 > 100 µM | EKVX > 100 µM | SK-MEL-28 > 100 µM | CCRF-CEM > 100 µM | TK-10 > 100 µM | KM12 > 100 µM | OVCAR-3 > 100 µM | IGROV-1 > 100 µM | Malme-3M > 100 µM | SF-295 > 100 µM | OVCAR-5 > 100 µM

CC(C)CC(NC(=O)C(Cc1ccccc1)NC(=O)C(COCc1ccccc1)NC(=O)OC(C)(C)C)C(=O)OCc1ccccc1 (stereo not drawn) (Boc-Ser(Bn)-Phe-Leu-OBn; configuration not given here)
inactive: UO-31 39.5 µM | SK-OV-3 36.4 µM | SF-539 33.9 µM | A498 95.9 µM | CAKI-1 30 µM | COLO 205 17.5 µM | UACC-62 17.5 µM | DU-145 9.57 µM | OVCAR-8 18.7 µM | MOLT-4 13.9 µM | EKVX 24.8 µM | SK-MEL-28 19.5 µM | CCRF-CEM 26.2 µM | TK-10 34 µM | OVCAR-3 20 µM | IGROV-1 17.4 µM | Malme-3M 78.2 µM | SF-295 21.8 µM | OVCAR-5 39.4 µM
